In one assay the target is T1, Kv3.1 (Homo sapiens, UniProt P48547).
T1 construct: gene KCNC1; Full-length human Kv3.1 (isoform A)
T1 sequence (P48547 1-511): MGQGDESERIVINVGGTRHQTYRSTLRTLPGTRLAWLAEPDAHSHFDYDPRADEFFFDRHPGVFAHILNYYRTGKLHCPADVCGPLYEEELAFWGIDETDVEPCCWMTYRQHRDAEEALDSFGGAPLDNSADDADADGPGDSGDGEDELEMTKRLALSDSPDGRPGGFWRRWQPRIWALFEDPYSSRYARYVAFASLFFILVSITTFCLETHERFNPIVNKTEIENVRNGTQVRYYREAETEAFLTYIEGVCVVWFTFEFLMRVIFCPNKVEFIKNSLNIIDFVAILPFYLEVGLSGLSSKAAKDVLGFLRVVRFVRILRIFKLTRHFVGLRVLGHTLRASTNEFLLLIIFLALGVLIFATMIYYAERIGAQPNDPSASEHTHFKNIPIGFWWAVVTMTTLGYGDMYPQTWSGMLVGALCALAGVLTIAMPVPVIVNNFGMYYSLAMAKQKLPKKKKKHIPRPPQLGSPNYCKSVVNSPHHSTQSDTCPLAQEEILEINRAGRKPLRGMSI
In words: cryo-EM structure of the complex ([…] Å); supported by TEVC of Kv3.[…] and binding-site mutants.

A further assay deals with T2, Kv3.2 (Homo sapiens, UniProt Q96PR1).
T2 construct: gene KCNC2
T2 sequence (Q96PR1 1-638): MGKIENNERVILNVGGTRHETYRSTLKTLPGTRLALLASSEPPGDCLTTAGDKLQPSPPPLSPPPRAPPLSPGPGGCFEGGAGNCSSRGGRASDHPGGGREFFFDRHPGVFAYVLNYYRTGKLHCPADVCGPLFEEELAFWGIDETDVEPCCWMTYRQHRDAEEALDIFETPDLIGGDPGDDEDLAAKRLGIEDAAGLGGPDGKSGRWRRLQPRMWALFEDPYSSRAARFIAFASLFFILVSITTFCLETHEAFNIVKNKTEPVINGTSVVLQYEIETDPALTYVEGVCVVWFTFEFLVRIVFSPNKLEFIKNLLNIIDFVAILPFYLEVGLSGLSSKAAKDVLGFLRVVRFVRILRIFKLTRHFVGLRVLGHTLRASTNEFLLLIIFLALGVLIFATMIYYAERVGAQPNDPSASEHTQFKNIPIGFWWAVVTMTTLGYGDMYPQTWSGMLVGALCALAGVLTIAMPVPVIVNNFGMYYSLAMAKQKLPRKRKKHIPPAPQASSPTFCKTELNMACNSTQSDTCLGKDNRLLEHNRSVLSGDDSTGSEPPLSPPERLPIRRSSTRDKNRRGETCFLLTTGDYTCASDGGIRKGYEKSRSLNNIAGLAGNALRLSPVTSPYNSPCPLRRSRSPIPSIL
Nature of the assay: TEVC in Xenopus oocytes, concentration dependence of ΔV0.[…]. The format is cell-based.

Take `CC[C@H]1NC(=O)N(c2ccc(Oc3cccc4c3C3(CC3)CO4)nc2)C1=O` [AUT5, (5 R)-5-ethyl-3-[6-(spiro[1-benzofuran-3,1’-cyclopropan]-4-yloxy)-3-pyridinyl]-2,4-imidazolidinedione]: the “cryo-EM structure of the complex (2.5 Å); supported by TEVC of Kv3.1 and binding” value on Kv3.1 was “A non-protein in the electron density map consistent with AUT5 is found in a cavity between S4 and S5 helices”. The EC50 at Kv3.2 is 3.2 µM.

By EC50 is commonly meant the concentration needed to bring the measured effect to its halfway point.

Source of the values: paper PMC10957983, “The binding and mechanism of a positive allosteric modulator of Kv3 channels” (Nature Communications, 2024).
